Reference: PubChem BioAssay AID248 (DTP/NCI, 2004)
Several values for one entry are separate records, joined by “and”; a condition that tells them apart may be missing. Equal values may be shown once. Inconclusive results and toxic doses are left out. Rule as the data show it: active = T/C of 150% or more; inactive = T/C below 125%.

System: L1210 leukemia ip in BDF1 mice, survival T/C
Experiment: NCI In Vivo Anticancer Drug Screen. Data for tumor model L1210 Leukemia (intraperitoneal) in B6D2F1 (BDF1) mice
Details: endpoint: mean survival time, higher = longer survival
Procedure, shortened: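 In this screen, tumor-bearing mice given compound are compared to those given vehicle, and their survival values are reported as a treated-to-control quotient.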

[1] = dose: 100.0 mg/kg/injection, schedule: Q04DX002 (ip), vehicle: saline
[2] = dose: 100.0 mg/kg/injection, schedule: Q01DX009 (ip), vehicle: Klucel (hydroxypropylcellulose) (HPC)
[3] = dose: 200.0 mg/kg/injection, schedule: Q01DX009 (ip), vehicle: Klucel (hydroxypropylcellulose) (HPC)
[4] = dose: 100.0 mg/kg/injection, schedule: Q04DX002 (ip), vehicle: saline with Tween-80
[5] = dose: 200.0 mg/kg/injection, schedule: Q04DX002 (ip), vehicle: saline with Tween-80
[6] = dose: 400.0 mg/kg/injection, schedule: Q04DX002 (ip), vehicle: saline with Tween-80
[7] = dose: 100.0 mg/kg/injection, schedule: Q01DX009 (ip), vehicle: saline with Tween-80
[8] = dose: 200.0 mg/kg/injection, schedule: Q01DX009 (ip), vehicle: saline with Tween-80
[9] = dose: 400.0 mg/kg/injection, schedule: Q01DX009 (ip), vehicle: saline with Tween-80
[10] = dose: 100.0 mg/kg/injection, schedule: Q01DX001 (ip), vehicle: saline
[11] = dose: 200.0 mg/kg/injection, schedule: Q01DX001 (ip), vehicle: saline

Measured: T/C

[NH-]C(CC(N)=O)C(=O)O.[NH-]C(CC(N)=O)C(=O)O.[Ni+2] (centres undefined)
inactive: dose: 6.25 mg/kg/injection, schedule: Q01DX009 (ip), vehicle: water 92 % of control | dose: 12.5 mg/kg/injection, schedule: Q01DX009 (ip), vehicle: water 91 % of control | dose: 25.0 mg/kg/injection, schedule: Q01DX009 (ip), vehicle: water 88 % of control | dose: 25.0 mg/kg/injection, schedule: Q04DX002 (ip), vehicle: saline 110 % of control | dose: 50.0 mg/kg/injection, schedule: Q04DX002 (ip), vehicle: saline 100 % of control | dose: 50.0 mg/kg/injection, schedule: Q04DX003 (ip), vehicle: water 112 % of control | [1] 123 % of control | dose: 100.0 mg/kg/injection, schedule: Q04DX003 (ip), vehicle: water 117 % of control

CSc1ccc(NC(=O)Nc2cccc(C)n2)cc1
inactive: [2] 98 % of control | dose: 100.0 mg/kg/injection, schedule: Q04DX003 (ip), vehicle: Klucel (hydroxypropylcellulose) (HPC) 95 % of control | [3] 108 % of control | dose: 200.0 mg/kg/injection, schedule: Q04DX003 (ip), vehicle: Klucel (hydroxypropylcellulose) (HPC) 93 % of control | dose: 400.0 mg/kg/injection, schedule: Q01DX009 (ip), vehicle: Klucel (hydroxypropylcellulose) (HPC) 97 % of control | dose: 400.0 mg/kg/injection, schedule: Q04DX003 (ip), vehicle: Klucel (hydroxypropylcellulose) (HPC) 97 % of control

CC(=O)c1ccc(N2CCNCC2)cc1
inactive: dose: 10.0 mg/kg/injection, schedule: Q01DX001 (ip), vehicle: carboxymethylcellulose (CMC) 115 % of control | dose: 20.0 mg/kg/injection, schedule: Q01DX001 (ip), vehicle: carboxymethylcellulose (CMC) 107 % of control | dose: 40.0 mg/kg/injection, schedule: Q01DX001 (ip), vehicle: carboxymethylcellulose (CMC) 109 % of control

O=C1CCN(C2(c3ccccc3)CCCCC2)CC1
inactive: [1] 92 % of control | dose: 200.0 mg/kg/injection, schedule: Q04DX002 (ip), vehicle: saline 103 % of control | dose: 400.0 mg/kg/injection, schedule: Q04DX002 (ip), vehicle: saline 97 % of control

CC(C)CC(=O)/C=C/C=C/c1ccccc1
inactive: [4] 101 % of control | [5] 95 % of control | [6] 111 % of control

O=C(COc1ccc(Cl)cc1Cl)OCCBr
inactive: dose: 100.0 mg/kg/injection, schedule: Q04DX002 (ip), vehicle: other 96 % of control | dose: 200.0 mg/kg/injection, schedule: Q04DX002 (ip), vehicle: other 118 % of control | dose: 400.0 mg/kg/injection, schedule: Q04DX002 (ip), vehicle: other 93 % of control

CCCNC(=O)Oc1cccc(NC(=O)CC)c1
inactive: dose: 25.0 mg/kg/injection, schedule: Q01DX009 (ip), vehicle: saline with Tween-80 100 % of control | dose: 50.0 mg/kg/injection, schedule: Q01DX009 (ip), vehicle: saline with Tween-80 100 % of control | [7] 92 % of control

O=C(NCCCN1CC1)C(=O)Nc1ccccc1
inactive: dose: 12.5 mg/kg/injection, schedule: Q04DX003 (ip), vehicle: Klucel (hydroxypropylcellulose) (HPC) 92 % of control | dose: 25.0 mg/kg/injection, schedule: Q04DX003 (ip), vehicle: Klucel (hydroxypropylcellulose) (HPC) 101 % of control

O=C(CCCCC(=O)c1ccc(O)cc1O)c1ccc(O)cc1O
inactive: dose: 100.0 mg/kg/injection, schedule: Q01DX001 (ip), vehicle: other 97 % of control | dose: 100.0 mg/kg/injection, schedule: Q04DX003 (ip), vehicle: other 103 % of control | dose: 200.0 mg/kg/injection, schedule: Q01DX001 (ip), vehicle: other 95 % of control | dose: 200.0 mg/kg/injection, schedule: Q04DX003 (ip), vehicle: other 100 % of control | dose: 400.0 mg/kg/injection, schedule: Q01DX001 (ip), vehicle: other 97 % of control | dose: 400.0 mg/kg/injection, schedule: Q04DX003 (ip), vehicle: other 106 % of control

CC(=O)NS(=O)(=O)c1ccc(N)cc1
inactive: [7] 94 % of control | dose: 100.0 mg/kg/injection, schedule: Q04DX003 (ip), vehicle: saline with Tween-80 98 % of control | [8] 94 % of control | dose: 200.0 mg/kg/injection, schedule: Q04DX003 (ip), vehicle: saline with Tween-80 98 % of control | [9] 95 % of control | dose: 400.0 mg/kg/injection, schedule: Q04DX003 (ip), vehicle: saline with Tween-80 100 % of control

CC1c2ccccc2N(S(=O)(=O)c2ccccc2)C1C (centres undefined)
inactive: dose: 100.0 mg/kg/injection, schedule: Q01DX009 (ip), vehicle: gum acacia 108 % of control | dose: 100.0 mg/kg/injection, schedule: Q04DX003 (ip), vehicle: gum acacia 96 % of control | dose: 200.0 mg/kg/injection, schedule: Q01DX009 (ip), vehicle: gum acacia 104 % of control | dose: 200.0 mg/kg/injection, schedule: Q04DX003 (ip), vehicle: gum acacia 102 % of control | dose: 400.0 mg/kg/injection, schedule: Q01DX009 (ip), vehicle: gum acacia 93 % of control | dose: 400.0 mg/kg/injection, schedule: Q04DX003 (ip), vehicle: gum acacia 96 % of control

S=C(N/N=C/c1ccccn1)NC1CC2C=CC1C2 (centres undefined)
inactive: [2] 100 % of control | [3] 95 % of control

CC/C=C(\C)CC(C)O (centres undefined)
inactive: [5] 90 % of control | [6] 90 % of control

CN(Cc1ccc(Cl)cc1)C(=O)Nc1ccccc1C(F)(F)F
inactive: [7] 108 % of control | [8] 106 % of control | [9] 103 % of control

O=C(O)C1C2c3ccccc3C(C1C(=O)O)[n+]1ccccc12 (centres undefined)
inactive: dose: 100.0 mg/kg/injection, schedule: Q01DX009 (ip), vehicle: saline 95 % of control | dose: 200.0 mg/kg/injection, schedule: Q01DX009 (ip), vehicle: saline 103 % of control | dose: 400.0 mg/kg/injection, schedule: Q01DX009 (ip), vehicle: saline 94 % of control

OB(O)CI
inactive: dose: 5.0 mg/kg/injection, schedule: Q01DX001 (ip), vehicle: saline 86 % of control | dose: 10.0 mg/kg/injection, schedule: Q01DX001 (ip), vehicle: saline 95 % of control | dose: 20.0 mg/kg/injection, schedule: Q01DX001 (ip), vehicle: saline 97 % of control

O=C(/C=C/CBr)NC(Cc1ccccc1)C(=O)O (centres undefined)
inactive: dose: 75.0 mg/kg/injection, schedule: Q01DX001 (ip), vehicle: other 104 % of control

NCCCC(N)C(=O)O (centres undefined)
inactive: [10] 98 % of control | [11] 102 % of control | dose: 400.0 mg/kg/injection, schedule: Q01DX001 (ip), vehicle: saline 106 % of control

CC(C)(C)C(O)c1ccccc1 (centres undefined)
inactive: dose: 25.0 mg/kg/injection, schedule: Q04DX002 (ip), vehicle: saline with Tween-80 97 % of control | dose: 50.0 mg/kg/injection, schedule: Q04DX002 (ip), vehicle: saline with Tween-80 93 % of control | [4] 93 % of control and 92 % of control | [5] 93 % of control and 95 % of control | [6] 95 % of control

C=CCNCC=C
inactive: dose: 50.0 mg/kg/injection, schedule: Q01DX001 (ip), vehicle: saline 96 % of control | [10] 96 % of control | [11] 98 % of control
